Measured values from patent US20230278972A1, “SUBSTITUTED HALOALKYL SULFONANILIDE HERBICIDES” (FMC Corporation, priority 2020, published 2023).

Tests used:
Format in all cases: in vivo
[1] = tested on: Oat, Wild (wild oat, Avena fatua); test: Test A1 preemergence, Oat, Wild
Summary of the method: (§1)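 Test compounds were formulated in a non-phytotoxic solvent mixture containing a surfactant. For preemergence, seeds sown in a loam soil–sand blend received a directed soil spray. For postemergence, potted plants in the same soil, 2 to 10 cm tall at the one- to two-leaf stage, were sprayed.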

[2] = tested on: blackgrass (Alopecurus myosuroides); test: Test A1 postemergence, blackgrass; settings: Postemergence, 0 to 100 scale (0 no effect, 100 complete control)
Summary of the method: (§2)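 Seeds were first planted into a blend of loam soil and sand and given a preemergence directed soil spray. In parallel, pots of the same soil were sown for postemergence application once plants reached 2 to 10 cm and the one- to two-leaf stage. Both used surfactant-containing non-phytotoxic solvent formulations.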

[3] = tested on: goosegrass (Eleusine indica); test: Test A1 postemergence, goosegrass; settings: Postemergence
Summary of the method: as §2

kochia (Bassia scoparia) = test: Test A1 postemergence, kochia; settings: Postemergence
Summary of the method: as §2

[4] = tested on: Oat, Wild (wild oat, Avena fatua); test: Test A1 postemergence, Oat, Wild; settings: Postemergence
Summary of the method: as §1

[5] = tested on: Ryegrass, Italian (Italian ryegrass, Lolium multiflorum); test: Test A1 postemergence, Ryegrass, Italian; settings: Postemergence
Summary of the method: as §2

[6] = tested on: wheat (Triticum aestivum); test: Test A1 postemergence, wheat; settings: Postemergence
Summary of the method: as §2

[7] = tested on: barnyardgrass (Echinochloa crus-galli); test: Test B1 flooded paddy test, barnyardgrass; settings: 250 g ai/ha, Flood, applied to paddy water, 2-leaf stage, visually evaluated after 10 to 14 days
Text: A dash (-) response means no test result.

[8] = 31 g ai/ha, 0 to 100 scale (0 no effect, 100 complete control)
[9] = 125 g ai/ha, 0 to 100 scale, 0 no effect, 100 complete control
[10] = 31 g ai/ha, 0 to 100 scale (0 no effect, 100 complete control), 10 days

| Structure (SMILES) | Plant response rating, Oat, Wild [1, 8] | Plant response rating, Oat, Wild [1, 9] | Plant response rating, Blackgrass ([2]; 31 g ai/ha, 10 days) | Plant response rating, Blackgrass ([2]; 125 g ai/ha) | Plant response rating, Goosegrass [3, 10] | Plant response rating, Goosegrass ([3]; 125 g ai/ha, 0 to 100 scale) | Plant response rating, Kochia (kochia (Bassia scoparia); [10]) | Plant response rating, Kochia (kochia (Bassia scoparia); 125 g ai/ha, 0 to 100 scale) | Plant response rating, Oat, Wild [4, 10] | Plant response rating, Oat, Wild ([4]; 125 g ai/ha, 0 to 100 scale) | Plant response rating, Ryegrass, Italian [5, 10] | Plant response rating, Ryegrass, Italian ([5]; 125 g ai/ha, 0 to 100 scale) | Plant response rating, Wheat [6, 10] | Plant response rating, Wheat ([6]; 125 g ai/ha, 0 to 100 scale) | Plant response rating, Barnyardgrass (0 to 100 scale, 0 is no effect, 100 is complete control) [7] |
| --- | --- | --- | --- | --- | --- | --- | --- | --- | --- | --- | --- | --- | --- | --- | --- |
| Cc1cc(C)c(N(COC(=O)C(C)C)S(=O)(=O)C(F)(F)F)cc1C1=NOC2CCCC12 (stereo not drawn) [Compound 308] | 0 | 50 | 0 | 0 | 50 | 80 | 20 | 70 | 0 | 0 | 0 | 30 | 10 | 50 | 95 |
| Cc1cc(F)c(C2=NOC3CCCC23)cc1NS(=O)(=O)C(F)(F)F (stereo not drawn) [Compound 310] | 0 | 0 | 0 | 0 | 0 | 0 | 0 | 20 | 0 | 10 | 20 | 30 | 0 | 20 | 0 |
| CCc1cc(C)c(C2=NOC3(CCCC3)C2)cc1NS(=O)(=O)C(F)(F)F [Compound 311] | 0 | 0 | 0 | 0 | 0 | 0 | 0 | 0 | 0 | 0 | 0 | 0 | 0 | 0 | 0 |
| COc1cc(C)c(NS(=O)(=O)C(F)(F)F)cc1C1=NOC2CCCC12 (stereo not drawn) [Compound 312] | 0 | 0 | 0 | 0 | 0 | 0 | 0 | 0 | 0 | 20 | 0 | 20 | 0 | 0 | 0 |
| Cc1cc(C2CC2)c(NS(=O)(=O)C(F)(F)F)cc1C1=NOC2(CCCC2)C1 [Compound 313] | 0 | 0 | 0 | 0 | 0 | 0 | 0 | 20 | 0 | 0 | 0 | 0 | 0 | 0 | 0 |
| Cc1cc(C)c(N(COC(=O)OC(C)C)S(=O)(=O)C(F)(F)F)cc1C1=NOC2CCCC12 (stereo not drawn) [Compound 314] | 0 | 0 | 0 | 10 | 60 | 80 | 30 | 70 | 0 | 10 | 10 | 70 | 50 | 70 | 98 |
| COC(=O)OCN(c1cc(C2=NOC3CCCC23)c(C)cc1C)S(=O)(=O)C(F)(F)F (stereo not drawn) [Compound 315] | 0 | 20 | 0 | 0 | 80 | 80 | 50 | 80 | 0 | 20 | 10 | 70 | 30 | 70 | 98 |
| Cc1cc(C)c(N(COC(=O)OC(C)(C)C)S(=O)(=O)C(F)(F)F)cc1C1=NOC2CCCC12 (stereo not drawn) [Compound 316] | 0 | 0 | 0 | 0 | 0 | 90 | 30 | 70 | 0 | 10 | 0 | 30 | 10 | 40 | 95 |
| Cc1cc(C)c(N(COC(=O)N(C)C)S(=O)(=O)C(F)(F)F)cc1C1=NOC2CCCC12 (stereo not drawn) [Compound 317] | 0 | 0 | 0 | 0 | 0 | 0 | 0 | 0 | 0 | 0 | 0 | 0 | 0 | 0 | 0 |
| COCC1CC(c2cc(NS(=O)(=O)C(F)(F)F)c(C)cc2C)=NO1 (stereo not drawn) [Compound 319] | 60 | 70 | 0 | 10 | 70 | 90 | 40 | 80 | 0 | 10 | 30 | 50 | 70 | 70 | 90 |
| Cc1c(C(=O)N(C)C)cc(NS(=O)(=O)C(F)(F)F)c(Cl)c1F [Compound 320] | 0 | 0 | 40 | 0 | 40 | 0 | 30 | 70 | 0 | 0 | 0 | 40 | 0 | 30 | 0 |
